These results are taken from patent US11332475B2, “Optically active pyranochromenyl phenol derivative and pharmaceutical composition comprising same” (GLACEUM, INC., priority 2016, dated 2022).

What all share (type): in vivo
The subject of test [1] is diet induced obesity (DIO) mouse. As to the kind of experiment: Anti-obesity effect (body weight change) in diet induced obesity (DIO) mouse. The settings on record: for Anti-obesity effect (%): % body weight change by Equation 1; for Anti-obesity activity compared with other isomer/racemate: result in words. Here is the method:
Specifically, a 5- to 6-week-old female C57BL/6J mouse (Jackson Lab., USA) were purchased and fed with only high-fat fodder for at least 11 weeks to produce a diet induced obesity (DIO) mouse. Samples were exactly taken from a control and the racemic compound, the R-enantiomer (Compound 2a) and the S-enantiomer (Compound 2b) in Example 1 according to the administration dose (0, 20, and 50 mg/kg) and put into Falcon tubes, 3 ml of a 0.5% aqueous methyl cellulose solution was added thereto, and the resulting mixture was gently mixed by means of a vortex mixer. Thereafter, the mixture was homogenized by using a homogenizer (30,000 rpm, Ultra-Turrax® T10 Basic, IKA) for 3 minutes while 1.5 ml of a 0.5% aqueous methyl cellulose solution was added thereto. The sample thus prepared was administered through the oral gavage once daily for 6 weeks by using a disposable plastic syringe. The body weight was measured once a week while the DIO mouse was bred in this manner.
Based on the data thus measured, the anti-obesity effect was calculated according to the following Equation 1. Anti-obesity effect (%)={(Body weight after compound is administered)−(Body weight before compound is administered)}/(Body weight before compound is administered))×100 [Equation 1]
For the anti-obesity efficacy of the R-enantiomer (Compound 3a) and the S-enantiomer (Compound 3b) of the optically active pyranochromenylphenol compound prepared in Example 2, an experiment was performed in the same manner as in Experimental Example 1.
Based on the data thus measured, the anti-obesity effect was calculated according to Equation 1.

Test [2] has as its system C57BLKS/J-db/db mice. As to the kind of experiment: Change in glycated hemoglobin of db/db mouse. As to conditions: average; for Glycated hemoglobin (HbAlc, %), before administration: 300 mg/kg group, before administration (baseline); for Glycated hemoglobin (HbAlc, %), 29th day after administration / Glycated hemoglobin (HbAlc, %), 43rd day after administration: 300 mg/kg. As to the method:
(§1) Specifically, 5-week-old male C57BLKS/J-db/db mice (Central Lab. Animal Inc., Korea) were purchased and acclimatized for 2 weeks, and then used in the present experiment. The R-enantiomer (Compound 3a) and the S-enantiomer (Compound 3b) prepared in Example 2 were weighed (CP423S, Sartorius, Germany) according to the administration dose and put into 50 ml tubes, an excipient (10% LM 2125 CS MCT solution) stored at room temperature was added thereto, and then the resulting mixture was stirred by means of a vortex mixer so as to dissolve the excipient. Thereafter, the solution was ultrasonically treated for about 10 minutes, and a stock solution was prepared by formulating the solution at a predetermined concentration. A 0.5% aqueous MC solution as an excipient was added to the prepared stock solution, the resulting mixture was gently stirred by means of a vortex mixer, homogenized and prepared by means of a homogenizer (PT-1600E, Kinematica, Switzerland) at 30,000 rpm for 3 minutes, and then a solution was prepared at a final predetermined concentration by performing ultrasonic wave treatment for 30 minutes. The sample thus prepared was administered through the oral gavage once daily for 6 weeks by using a disposable plastic syringe with a zonde for oral administration attached.
By using the same method as in Experimental Example 3, a racemic compound of Compound 1, Compound 1a being an R-enantiomer, a racemic compound of Compound 3 prepared in Example 2 and Compound 3a being an R-enantiomer were administered to the C57BLKS/J-db/db mice, and then the anti-diabetes effects were confirmed.
The following Table 5 is a result of measuring a change in glycated hemoglobin of the db/db mouse according to the administration of the normal group, the negative control the racemic compound of Compound 1, Compound 1a being the R-enantiomer, the racemic Compound of Compound 3 prepared in Example 2 and Compound 3a being the R-enantiomer.

Test [3] relates to C57BLKS/J-db/db mice. As to the kind of experiment: Glucose tolerance test in db/db mice. The settings on record: db/db mouse; for Blood sugar (mg/dl), 15 min after administration of glucose / Blood sugar (mg/dl), 30 min after administration of glucose / Blood sugar (mg/dl), 60 min after administration of glucose / Blood sugar (mg/dl), 120 min after administration of glucose / Blood sugar (mg/dl), 180 min after administration of glucose / Blood sugar (mg/dl), 240 min after administration of glucose / Blood sugar (mg/dl), 0 min after administration of glucose / AUC of blood sugar: 48th day, average; for Blood sugar (mg/dl), 15 min after administration of glucose / Blood sugar (mg/dl), 30 min after administration of glucose / Blood sugar (mg/dl), 60 min after administration of glucose / Blood sugar (mg/dl), 120 min after administration of glucose / Blood sugar (mg/dl), 180 min after administration of glucose / Blood sugar (mg/dl), 240 min after administration of glucose / Blood sugar (mg/dl), 0 min after administration of glucose: glucose 2 g/kg oral; for Blood sugar (mg/dl), 0 min after administration of glucose: before glucose; for AUC of blood sugar: glucose tolerance test 0-240 min, Phoenix WinNonlin. As to the method:
as §1
While the C57BLKS/J-db/db mouse was bred, the mouse was fasted for 14 to 16 hours on the 48th day after administration, and then a glucose tolerance test was performed by orally administering glucose (Lot No: SLBM9269V, Sigma-Aldrich. USA) at a dose of 2 g/kg to the mice. Specifically, blood was collected from the caudal vein seven times in total including before the administration of glucose, at 15 minutes after the administration of glucose, at 30 minutes after the administration of glucose, at 60 minutes after the administration of glucose, at 120 minutes after the administration of glucose, at 180 minutes after the administration of glucose, and at 240 minutes after the administration of glucose. Thereafter, blood sugar was measured by using two blood sugar meters (AGM-4000, Allmedicus Inc., Korea), and then an average blood sugar was calculated by using each blood sugar measurement value. The area under the blood concentration-time curve (AUC) for the blood sugar value at each measurement time point was calculated by using a Phoenix WinNonlin program.

[4] abbreviates: 50 mg/kg oral gavage once daily for 6 weeks.
Where [5] appears, read: 200 mg/kg oral gavage once daily for 6 weeks.

With `CCOc1ccc(C2COc3c(ccc4c3CCC(C)(C)O4)C2)c(O)c1` (racemic) [Compound 2, 3-(2-hydroxy-4-ethoxyphenyl)-8,8-dimethyl-2,3,4,8,9,10-hexahydropyrano[2,3-f]chromene], the “Anti-obesity effect (%)” value was 16.11% in test [1] (20 mg/kg oral gavage once daily for 6 weeks) and 2.29% in test [1] (setting [4]).

In the case of `CCCOc1ccc(C2COc3c(ccc4c3CCC(C)(C)O4)C2)c(O)c1` (racemic) [Compound 3, 3-(2-hydroxy-4-propoxyphenyl)-8,8-dimethyl-2,3,4,8,9,10-hexahydropyrano[2,3-f]chromene], in the test on C57BLKS/J-db/db mice [2], the “Glycated hemoglobin (HbAlc, %), before administration” value worked out at 4.7%; the “Glycated hemoglobin (HbAlc, %), 29th day after administration” value was 6.7%; the “Glycated hemoglobin (HbAlc, %), 43rd day after administration” value came out at 6.2%.

Take `CCOc1ccc([C@@H]2COc3c(ccc4c3CCC(C)(C)O4)C2)c(O)c1` [Compound 2a, (R)-3-(2-hydroxy-4-ethoxyphenyl)-8,8-dimethyl-2,3,4,8,9,10-hexahydropyrano[2,3-f]chromene]: in test [1] (setting [4]), the “Anti-obesity effect (%)” value is 7.58%.

As for `CCOc1ccc([C@H]2COc3c(ccc4c3CCC(C)(C)O4)C2)c(O)c1` [Compound 2b, (S)-3-(2-hydroxy-4-ethoxyphenyl)-8,8-dimethyl-2,3,4,8,9,10-hexahydropyrano[2,3-f]chromene], in test [1] (setting [4]), the “Anti-obesity effect (%)” value is reported as −10.99%. Also, the “Anti-obesity activity compared with other isomer/racemate” value in test [1] was “better effect of suppressing an increase in body weight than the racemic compound and Compound 2a”.

Turning to `CCCOc1ccc([C@@H]2COc3c(ccc4c3CCC(C)(C)O4)C2)c(O)c1` [Compound 3a, (R)-3-(2-hydroxy-4-propoxyphenyl)-8,8-dimethyl-2,3,4,8,9,10-hexahydropyrano[2,3-f]chromene], the “Anti-obesity effect (%)” value in test [1] (setting [5]) was −8.1%. In the test with C57BLKS/J-db/db mice [3] (100 mg/kg oral once daily), the “Blood sugar (mg/dl), 15 min after administration of glucose” value (“Blood sugar (mg/dl), 15 min” for short) is 473 mg/dL; the “Blood sugar (mg/dl), 30 min after administration of glucose” value (shortened to “Blood sugar (mg/dl), 30 min”) turned out to be 527 mg/dL; the “Blood sugar (mg/dl), 60 min after administration of glucose” value (“Blood sugar (mg/dl), 60 min” below) turned out to be 541 mg/dL; the “Blood sugar (mg/dl), 120 min after administration of glucose” value (from here on “Blood sugar (mg/dl), 120 min”) worked out at 200 mg/dL. Also, in the test with C57BLKS/J-db/db mice [3] (100 mg/kg oral once daily), the “Blood sugar (mg/dl), 180 min after administration of glucose” value (“Blood sugar (mg/dl), 180 min” below) came to 176 mg/dL; the “Blood sugar (mg/dl), 240 min after administration of glucose” value (shortened to “Blood sugar (mg/dl), 240 min”) is 184 mg/dL; the “Blood sugar (mg/dl), 0 min after administration of glucose” value (“Blood sugar (mg/dl), 0 min” for short) worked out at 193 mg/dL; the “AUC of blood sugar” value stood at 526 mg/dL/min. For the same molecule, in the test on C57BLKS/J-db/db mice [3] (150 mg/kg oral once daily), the “Blood sugar (mg/dl), 15 min” value is 440 mg/dL; the “Blood sugar (mg/dl), 30 min” value was determined as 469 mg/dL; the “Blood sugar (mg/dl), 60 min” value was found to be 460 mg/dL; the “Blood sugar (mg/dl), 120 min” value is 234 mg/dL. Moreover, in the test with C57BLKS/J-db/db mice [3] (150 mg/kg oral once daily), the “Blood sugar (mg/dl), 180 min” value came to 153 mg/dL; the “Blood sugar (mg/dl), 240 min” value is 163 mg/dL; the “Blood sugar (mg/dl), 0 min” value worked out at 175 mg/dL; the “AUC of blood sugar” value turned out to be 481 mg/dL/min. In the test on C57BLKS/J-db/db mice [3] (200 mg/kg oral once daily), the “Blood sugar (mg/dl), 15 min” value amounted to 488 mg/dL; the “Blood sugar (mg/dl), 30 min” value is 507 mg/dL; the “Blood sugar (mg/dl), 60 min” value was determined as 437 mg/dL; the “Blood sugar (mg/dl), 120 min” value is 223 mg/dL. Further, in the test with C57BLKS/J-db/db mice [3] (200 mg/kg oral once daily), the “Blood sugar (mg/dl), 180 min” value stood at 183 mg/dL; the “Blood sugar (mg/dl), 240 min” value stood at 174 mg/dL; the “Blood sugar (mg/dl), 0 min” value was found to be 159 mg/dL; the “AUC of blood sugar” value turned out to be 501 mg/dL/min. Besides, the “Adjustment of blood sugar in glucose tolerance test, compared with other enantiomer” value with C57BLKS/J-db/db mice [3] (result in words) was “adjusted blood sugar well as compared to the S-enantiomer (Compound 3b)”. Besides, in the test on C57BLKS/J-db/db mice [2], the “Glycated hemoglobin (HbAlc, %), before administration” value was 4.7%; the “Glycated hemoglobin (HbAlc, %), 29th day after administration” value was 7.1%; the “Glycated hemoglobin (HbAlc, %), 43rd day after administration” value amounted to 5.3%.

On to `CCCOc1ccc([C@H]2COc3c(ccc4c3CCC(C)(C)O4)C2)c(O)c1` [Compound 3b, (S)-3-(2-hydroxy-4-propoxyphenyl)-8,8-dimethyl-2,3,4,8,9,10-hexahydropyrano[2,3-f]chromene], for which the “Anti-obesity effect (%)” value in test [1] (setting [5]) is −19.5%. In addition, the “Body weight of the mouse after administration for 6 weeks” value in test [1] (6 weeks, FIG. 4, result in words) is “close to the body weight of the normal mouse”. Also, the “Anti-obesity activity compared with other isomer/racemate” value in test [1] is given as “better anti-obesity activity than Compound 3a”. Moreover, in the test with C57BLKS/J-db/db mice [3] (100 mg/kg oral once daily), the “Blood sugar (mg/dl), 15 min” value turned out to be 595 mg/dL; the “Blood sugar (mg/dl), 30 min” value was 616 mg/dL; the “Blood sugar (mg/dl), 60 min” value was determined as 628 mg/dL; the “Blood sugar (mg/dl), 120 min” value turned out to be 472 mg/dL. In the test on C57BLKS/J-db/db mice [3] (100 mg/kg oral once daily), the “Blood sugar (mg/dl), 180 min” value worked out at 422 mg/dL; the “Blood sugar (mg/dl), 240 min” value worked out at 397 mg/dL; the “Blood sugar (mg/dl), 0 min” value amounted to 392 mg/dL; the “AUC of blood sugar” value turned out to be 782 mg/dL/min.
